The values below come from BindingDB's records for doi:10.1016/j.bmc.2014.05.025 (University of California, 2014).

The experiment addresses T1, Polyunsaturated fatty acid lipoxygenase ALOX12 (Homo sapiens, UniProt P18054).
T1 sequence (P18054 whole entry): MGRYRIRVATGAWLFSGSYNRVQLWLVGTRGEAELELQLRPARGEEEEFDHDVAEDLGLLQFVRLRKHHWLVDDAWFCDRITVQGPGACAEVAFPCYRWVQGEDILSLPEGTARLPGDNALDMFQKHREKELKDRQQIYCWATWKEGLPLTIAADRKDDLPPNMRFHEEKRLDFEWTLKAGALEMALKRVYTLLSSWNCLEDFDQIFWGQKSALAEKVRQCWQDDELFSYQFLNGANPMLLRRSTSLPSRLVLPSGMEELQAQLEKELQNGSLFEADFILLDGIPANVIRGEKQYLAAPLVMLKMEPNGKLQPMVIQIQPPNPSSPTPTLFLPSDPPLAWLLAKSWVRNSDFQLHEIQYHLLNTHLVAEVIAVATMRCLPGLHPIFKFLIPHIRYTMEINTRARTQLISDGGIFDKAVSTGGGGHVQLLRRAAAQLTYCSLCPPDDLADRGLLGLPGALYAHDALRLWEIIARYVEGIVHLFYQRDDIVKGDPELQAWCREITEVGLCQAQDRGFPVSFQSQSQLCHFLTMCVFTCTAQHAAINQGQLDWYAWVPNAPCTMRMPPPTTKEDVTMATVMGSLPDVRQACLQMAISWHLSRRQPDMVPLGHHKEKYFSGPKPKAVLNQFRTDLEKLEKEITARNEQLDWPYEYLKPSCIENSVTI
Briefly: Mixed type inhibition of human platelet 12-lipoxygenase assessed as equilibrium inhibitor constant of dissociation from enzyme by measuring 12-HpETE formation in presence of 0.01% Triton-X-100 by Dixon plot based steady-state inhibition kinetics assay.

One may read the Ki as the dissociation constant of the complex between target and ligand, obtained from inhibition or displacement.

On to `CCCCCC(=O)C=CC=CC/C=C\C/C=C\CCCC(=O)O` [(5Z,8Z,11Z,13E)-15-oxoicosa-5,8,11,13-tetraenoic acid], for which the Ki was 87 nM.
